Reference: PubChem BioAssay AID2743 (NMMLSC, 2010)
Active and inactive are the calls of the source.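 The calls were made as follows: active = fitted half-maximal concentration for change in GFP expression of 33 µM or less; inactive = the rest.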

Assay: concentration-dependent AGP1-GFP change, TOR pathway – cell-based, flow cytometry, S. cerevisiae, MLPCN hits, dose response (AID 2743)
Conditions: S. cerevisiae AGP1-GFP strain, flow cytometry GFP, 3 h; at 33 µM (top of the series)
In the case of Cc1ccc(-c2nc(N)c3c(-c4ccc(C)cc4)nn(C(C)(C)C)c3n2)cc1, the GFP fluorescence (kMESF) is reported as 38.4 kMESF (inactive). For CCCN1CCc2c(sc(NC(=S)NC(=O)c3ccccc3)c2C#N)C1, the GFP fluorescence (kMESF) was 42 kMESF (inactive). For O=C1C(=O)c2ccccc2-c2ccccc21, the GFP fluorescence (kMESF) was 17.5 kMESF (inactive). For COc1ccc(N=Cc2nc(-c3ccccc3)oc2OC(C)=O)cc1, the GFP fluorescence (kMESF) was 35 kMESF (inactive). With COc1ccc(C(=O)NC(=S)NNC(=O)CCc2ccccc2)cc1 the GFP fluorescence (kMESF) was 37.5 kMESF (inactive). For Cc1ccc(C)c(/C=C/C(=O)c2ccccc(=O)c2O)c1, the GFP fluorescence (kMESF) was 10.5 kMESF (inactive). For O=C(/C=C/c1ccccc1)c1cc(Br)ccc(=O)c1O, the GFP fluorescence (kMESF) was -1.01 kMESF (inactive). In the case of CC(Oc1cccc(Cl)c1)C(=O)Nc1nc(-c2ccccn2)cs1 (stereo not given), the GFP fluorescence (kMESF) is reported as 50.7 kMESF (inactive). For Clc1ccc(N=c2ssnc2Cl)cc1, the GFP fluorescence (kMESF) was 39.8 kMESF (inactive). For O=C(/C=C/c1ccnc2ccccc12)c1cccs1, the GFP fluorescence (kMESF) was 45.9 kMESF (inactive). For N=C1/C(=C\c2coc3ccccc3c2=O)C(=O)N=C2SC(c3ccncc3)=NN12, the GFP fluorescence (kMESF) was 44.7 kMESF (inactive). In the case of O=C(Oc1oc(-c2ccco2)nc1C=Nc1ccc(Cl)cc1)c1ccco1, the GFP fluorescence (kMESF) is reported as 42 kMESF (inactive). For Cc1ccc(/C=C/C(=O)c2ccc([N+](=O)[O-])o2)cc1, the GFP fluorescence (kMESF) was 42.9 kMESF (inactive). In the case of COc1ccccc1OCCCc1c(C)n[nH]c1C, the GFP fluorescence (kMESF) is reported as 31.1 kMESF (inactive). In the case of Cc1ccc(C(=O)/C=C/C(=O)c2ccc(C)cc2)cc1, the GFP fluorescence (kMESF) is reported as 43.8 kMESF (inactive). In the case of O=C1N(c2ccccc2C(F)(F)F)O[C@@]1(c1ccccc1)C1CCCC1, the GFP fluorescence (kMESF) is reported as 38.4 kMESF (inactive). In the case of CCOC(=O)c1cc(-c2ccc(/C=C3/C(=O)NC(=O)C(C#N)=C3C)o2)ccc1Cl, the GFP fluorescence (kMESF) is reported as 28.2 kMESF (inactive). For COc1cc(C=C2C(=O)c3ccccc3C2=O)cc(OC)c1OC, the GFP fluorescence (kMESF) was 38.9 kMESF (inactive). In the case of COc1ccc(OC)c(S(=O)(=O)ON2C(=O)c3ccccc3C2=O)c1, the GFP fluorescence (kMESF) is reported as 39.4 kMESF (inactive). In the case of COc1cccc(/C=C2\SC(=S)N(CCCC(=O)Nc3ccc(C(=O)O)cc3)C2=O)c1, the GFP fluorescence (kMESF) is reported as 34.8 kMESF (inactive). For Cc1[nH]c2ccccc2c1C(=O)COC(=O)c1ccc([N+](=O)[O-])s1, the GFP fluorescence (kMESF) was 16.9 kMESF (inactive). With CCOC(=O)C(C(=O)OCC)C(C(=O)OCC)N1CCOCC1 (stereo not given) the GFP fluorescence (kMESF) was 41 kMESF (inactive). With CC(=O)N(C(C)=O)c1ncnc2c1c(-c1ccc(Cl)cc1)nn2C(C)(C)C the GFP fluorescence (kMESF) was 36.6 kMESF (inactive). In the case of CC(=O)Oc1ccc(N2C(=O)C3C4C=CC(CO)(O4)C3C2=O)cc1 (stereo not given), the GFP fluorescence (kMESF) is reported as 41.3 kMESF (inactive). For O=C1C=C(Nc2ccc(Cl)cc2)C(=O)N1c1ccc(Cl)cc1, the GFP fluorescence (kMESF) was 37.8 kMESF (inactive). For Cc1ccc(C(CC(=O)O)NC(=O)c2ccc(S(=O)(=O)N3CC(C)OC(C)C3)cc2)cc1 (stereo not given), the GFP fluorescence (kMESF) was 36.9 kMESF (inactive). In the case of CC(C)(C)C(=O)NC(=S)NNC(=O)c1ccc(-c2ccccc2)cc1, the GFP fluorescence (kMESF) is reported as 44.1 kMESF (inactive). With COc1ccc([N+](=O)[O-])c(S(=O)(=O)c2ccccc2)n1 the GFP fluorescence (kMESF) was 47.5 kMESF (inactive). In the case of Cc1ccc(C(=O)NNC(=S)NC(=O)c2ccco2)cc1, the GFP fluorescence (kMESF) is reported as 44.1 kMESF (inactive). In the case of CCCCNc1c2c3c(cccc3n(C)c1=O)C(=O)c1ccccc1-2, the GFP fluorescence (kMESF) is reported as 36.3 kMESF (inactive). With Cc1ccc(/C=C/C(=O)c2ccccc(=O)c2O)c(C)c1 the GFP fluorescence (kMESF) was 28.9 kMESF (inactive). With C#CCOCCOCCOCCNc1nc(N2CCN(C(=O)CCCCCCCCCCNC(=O)[C@H](CCCCN)n3cc(CCCC(=O)O)nn3)CC2)nc(N2CCN(C(=O)CCCCCCCCCCNC(=O)[C@H](CCCN=C(N)N)n3cc(C[C@@H](C)CC)nn3)CC2)n1 the GFP fluorescence (kMESF) was 42.4 kMESF (inactive). For CCOc1ccccc1/C=c1\sc2ncnn2c1=O, the GFP fluorescence (kMESF) was 39.5 kMESF (inactive). With CCCc1ccc(OCC(=O)NNC(=S)NC(=O)c2ccco2)cc1 the GFP fluorescence (kMESF) was 38.1 kMESF (inactive). In the case of Cc1cc(Br)c2c(c1)/C(=C/C(=O)c1cccs1)C(=O)N2, the GFP fluorescence (kMESF) is reported as 38.7 kMESF (inactive). For Oc1c(C(Nc2nc3ccccc3s2)c2ccco2)ccc2cccnc12 (stereo not given), the GFP fluorescence (kMESF) was 39.7 kMESF (inactive). For O=C1CCN(S(=O)(=O)c2ccccc2)CCN1CCOCc1ccc(F)cc1, the GFP fluorescence (kMESF) was 33.5 kMESF (inactive). In the case of Cc1cccc(OCCN2CSC(=S)N(C)C2)c1, the GFP fluorescence (kMESF) is reported as 46.6 kMESF (inactive). With O=S1(=O)C=C(Sc2nc3ccccc3s2)c2ccccc21 the GFP fluorescence (kMESF) was 34.3 kMESF (inactive). With O=C1N(c2ccccc2C(F)(F)F)O[C@]1(c1ccccc1)C1CCCCC1 the GFP fluorescence (kMESF) was 34.3 kMESF (inactive). With O=C(COc1c(Br)cc(Br)c2cccnc12)N1CCc2ccccc2C1 the GFP fluorescence (kMESF) was 28.6 kMESF (inactive). In the case of CCCCS(=O)(=O)/C=C\C=C/S(=O)(=O)CCCC, the GFP fluorescence (kMESF) is reported as 26.3 kMESF (inactive). In the case of CCC(=O)Nc1ccc(NC(=O)c2cc3ccccc3o2)c(OC)c1, the GFP fluorescence (kMESF) is reported as 44.6 kMESF (inactive). For O=C1Nc2ccccc2/C1=C\C(=O)c1ccccc1, the GFP fluorescence (kMESF) was 38.3 kMESF (inactive). For CC1=C/C(=N\OS(=O)(=O)c2ccccc2)C(C(C)C)=CC1=O, the GFP fluorescence (kMESF) was 28.8 kMESF (inactive).
